Assay results from publication PMC8085013, “Mixture interactions at mammalian olfactory receptors are dependent on the cellular environment” (Scientific Reports, 2021).
“Also recorded” adds a separate entry of the source.

What was measured:
Type in all cases: cell-based
[1] = molecular target: T1, mouse Olfr73 (Mus musculus, UniProt Q920P2); assay: GCaMP3 calcium imaging of mouse OSNs ectopically expressing Olfr73 (rAAV2/5), 5-s odorant pulse; settings: for Agonism/antagonism, OSN Ca2+ Mouse: strong agonist 100 µM, putative antagonist 1 mM, single or as pair; for Effect on the response to eugenol in a binary mix: eugenol 100 µM or 10 µM plus putative antagonist
T1 sequence (Q920P2 1-313): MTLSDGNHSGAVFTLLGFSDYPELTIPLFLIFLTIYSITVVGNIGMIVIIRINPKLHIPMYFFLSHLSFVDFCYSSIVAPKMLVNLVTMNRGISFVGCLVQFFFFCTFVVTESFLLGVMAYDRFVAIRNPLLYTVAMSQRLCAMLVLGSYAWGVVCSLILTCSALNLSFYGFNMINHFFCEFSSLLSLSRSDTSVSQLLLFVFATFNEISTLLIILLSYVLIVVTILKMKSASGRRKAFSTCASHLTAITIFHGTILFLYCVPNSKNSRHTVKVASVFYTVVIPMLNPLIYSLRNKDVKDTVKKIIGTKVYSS

[2] = molecular target: T1, mouse Olfr73; assay: Calcium imaging of HEK293 cells expressing Olfr73 with Gs/olf, short 5-s odorant pulse; settings: for Effect on the response to eugenol or vanillin in a binary mix: agonist 100 µM, test ligand 1 mM; for Agonism/antagonism, HEK293 short odor Ca2+ Gs/olf: strong agonist 100 µM, putative antagonist 1 mM, single or as pair
[3] = molecular target: T1, mouse Olfr73; assay: Calcium imaging of HEK293 cells expressing Olfr73 with Gα15, short 5-s odorant pulse; settings: for Response to ligand applied alone: HEK293, Gα15, 5-s pulse; for Effect on the response to eugenol in a binary mix: HEK293, Gα15, eugenol 100 µM; for Agonism/antagonism, HEK293 short odor Ca2+ G15: 5-s pulse, strong agonist 100 µM, putative antagonist 1 mM, single or as pair
[4] = molecular target: T1, mouse Olfr73; assay: cell-based; settings: for Response to ligand applied alone: HEK293, Gαq11/ß1/γ13, 5-s pulse; for Agonism/antagonism, HEK293 short odor Ca2+ Gq11: 5-s pulse, strong agonist 100 µM, putative antagonist 1 mM, single or as pair
[5] = molecular target: T1, mouse Olfr73; assay: GCaMP3 calcium imaging of rat OSNs ectopically expressing Olfr73 (rAAV2/5), 5-s odorant pulse
[6] = molecular target: T1, mouse Olfr73; assay: Cre-SEAP cAMP reporter assay, HEK293 cells co-expressing untagged Olfr73 and Gs/olf, prolonged odorant
Procedure: cAMP production was measured as previously described. HEK293T cells were co-transfected with a guanine nucleotide exchange factor Ric-8b (50 ng; a gift from Dr. Malnic, Universidade de São Paulo, Brazil), Gαolf (50 ng), RTP1s (100 ng) and untagged Olfr73 (1.5 μg). Cells were also transfected with 1.5 μg of a pCRE-SEAP, where the expression of the secreted alkaline phosphatase (SEAP) is under regulation of the cAMP responsive element. A plasmid pTAL-SEAP missing the Cre element was used as a negative control. Cells were also transfected with 50 ng of a pcDNA5/TO/LacZ (Invitrogen) for DNA concentration normalization. At 24 h post-transfection, the cells were re-seeded for SEAP analysis and odorants were added at the indicated dilutions at 48 h post-transfection. […] The supernatants were incubated for 30 min at 65 °C and then frozen until analysis. The cell pellets were washed with PBS and then lysed with reporter lysis buffer for β-galactosidase measurement following the manufacturer’s instructions (Promega). SEAP activity was measured by mixing 100 μl of supernatant with an equal amount of BluePhos substrate (KPL). Samples were monitored for color development at 630 nm in a microwell plate reader. SEAP activity was calculated by subtracting the responses of cells transfected in parallel with pTAL-SEAP and normalizing to β-gal activity. Average SEAP activity was determined after subtracting the response of cells not expressing an OR and is reported in arbitrary units ± standard deviation.

[7] = molecular target: T1, mouse Olfr73; assay: cAMP-dependent Ca2+ influx (CNGCmut, GCaMP3) in HEK293 cells with untagged Olfr73 and Gs/olf, 10-min odorant; settings: for Response to ligand applied alone, prolonged: 10-min application; for Response to ligand applied alone, prolonged / Agonism/antagonism, HEK293 long odor Ca2+ Gs/olf: eugenol 100 µM, MIEG 1 mM; for Agonism/antagonism, HEK293 long odor Ca2+ Gs/olf: prolonged 10-min odorant application
[8] = molecular target: T1, mouse Olfr73; assay: GCaMP3 calcium imaging of HEK293T cells co-transfected with pTR-Olfr73-furin2A-GCaMP3 (untagged Olfr73) and Gα15, 5-s pulse; settings: for Response to ligand applied alone: HEK293T, untagged Olfr73, Gα15, 5-s pulse
[9] = molecular target: Olfr599 (Mus musculus, UniProt Q8VG01); assay: GCaMP3 calcium imaging of mouse OSNs ectopically expressing Olfr599 (rAAV2/5); settings: each at 100 µM, 5-s pulse
Olfr599, sequence (Q8VG01 entry or part of it): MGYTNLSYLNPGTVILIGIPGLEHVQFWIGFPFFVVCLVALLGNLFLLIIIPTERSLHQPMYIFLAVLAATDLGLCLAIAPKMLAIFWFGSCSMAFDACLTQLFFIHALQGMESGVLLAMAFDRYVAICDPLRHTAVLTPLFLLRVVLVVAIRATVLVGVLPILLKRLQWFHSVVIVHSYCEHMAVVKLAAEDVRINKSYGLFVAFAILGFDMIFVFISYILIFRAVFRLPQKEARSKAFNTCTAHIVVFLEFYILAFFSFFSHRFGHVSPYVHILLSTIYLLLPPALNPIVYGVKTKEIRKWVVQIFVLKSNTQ
Procedure: Animals 4–6 weeks of age were used for experiments 7–21 days post-inoculation with rAAV2/5 encoding OR-furin2A-GCaMP3. Calcium imaging was performed as detailed previously. Tissue was prepared and mounted with the apical surface facing up. The chamber was transferred to the stage of an upright microscope (Zeiss Axioskop-2F) equipped with a 40×/0.75NA long distance water-immersion objective lens. Experimental solutions were applied for a duration of 5 s directly to the field of view through a 100 µm diameter needle made of fused silica and connected to a 9-channel Teflon manifold. Solution application was controlled by electronic valves (VC-6, Warner Instruments). The calcium response is presented as an increase of GCaMP3 fluorescence originating from the knob and underlying dendrite. The tissue was illuminated using a standard eGFP filter cube BP490 nm/ 535 nm (Omega Optical, USA) and the emitted light was collected at 530 nm (BP 530/20 nm, Omega Optical, USA) by a 12-bit cooled CCD camera (ORCA R2, Hamamatsu, Japan). […] Before processing, fluorescence intensity was corrected for the background. Each knob was assigned a region of interest (ROI) and changes in fluorescence intensity within each ROI were analyzed and expressed as the peak fractional change in fluorescent light intensity (F-Fo)/Fo where Fo is the baseline fluorescence before application of experimental solutions.

[10] = HEK293, vanillin 100 µM, MIEG 1 mM

SMILES: CCCCCOC(C)=O [Amyl acetate, amyl acetate]
- Response to ligand applied alone ([1]; mouse Olfr73-OSNs, 5-s pulse): variable responses

SMILES: C=C(C)C1CC=C(C)C(=O)C1 (stereo not drawn) [Carvone]
- Response to ligand applied alone ([2]; HEK293, Gs/olf, 5-s pulse): did not activate any response
- Effect on the response to eugenol or vanillin in a binary mix ([2]; HEK293, Gs/olf): no inhibiting effect
- Response to ligand applied alone [3]: non-agonist
- Effect on the response to eugenol in a binary mix [3]: incapable
- Response to ligand applied alone [4]: non-agonist
- Effect on the response to eugenol in a binary mix ([4]; HEK293, eugenol 100 µM, test ligand 1 mM, also with 30-s pre-incubation): no antagonism; also recorded: failed to antagonize

SMILES: C=CCc1ccc(O)c(OC)c1 [Eugenol, eugenol]
- EC50 [1]: 4.8 ± 1.1 µM
- Response to ligand applied alone ([1]; mouse Olfr73-OSNs, 5-s pulse): strongly activated; also recorded: consistently evoked a response in all cells
- EC50 [5]: 41 ± 12 µM
- Sensitivity of rat versus mouse Olfr73-OSNs ([5]; from EC50 values): nearly tenfold less sensitive
- EC50 ([6]; HEK293 long odor, Cre/SEAP, Gs/olf, untagged Olfr73): 205 ± 27 µM
- Response to ligand applied alone, prolonged [7]: sustained cAMP-dependent calcium influx
- Agonism/antagonism, HEK293 long odor Ca2+ Gs/olf [7]: Agonist
- Agonism/antagonism, HEK293 short odor Ca2+ Gs/olf ([2]; 5-s pulse): Agonist
- Agonism/antagonism, HEK293 short odor Ca2+ G15 [3]: Agonist
- Response to ligand applied alone [4]: consistently activated calcium release
- EC50 ([4]; HEK293 short odor Ca2+, Gq11, response normalized to 5 mM eugenol): 184 ± 62 µM
- Response to ligand applied alone [8]: robustly activated
- Response to ligand applied alone ([8]; listed as eugenol): robust elevation of intracellular calcium; also recorded: robust calcium signal

SMILES: C/C=C/c1ccc2c(c1)OCO2 [Isosafrole]
- Agonism/antagonism, OSN Ca2+ Mouse ([1]; 5-s pulse): Agonist
- Response relative to the response to eugenol ([1]; ligand 1 mM, 5-s pulse, Olfr73-OSNs): 25%
- Agonism/antagonism, HEK293 short odor Ca2+ Gs/olf ([2]; 5-s pulse): Antagonist
- Agonism/antagonism, HEK293 short odor Ca2+ G15 [3]: Antagonist
- Agonism/antagonism, HEK293 short odor Ca2+ Gq11 [4]: Antagonist

SMILES: C/C=C/c1ccc(OC)c(OC)c1 [Methylisoeugenol, methylisoeugenol]
- Response to ligand applied alone ([1]; mouse Olfr73-OSNs, 5-s pulse): evoked a measurable response
- Response to ligand applied alone ([1]; mouse Olfr73-OSNs, 5-s pulse, listed as MIEG): partial agonist
- Response to ligand applied alone ([1]; mouse Olfr73-OSNs, 5-s pulse, listed as methylisoeugenol): also elicited a response
- EC50 ([1]; mouse Olfr73-OSNs, Ca2+ (GCaMP3), 5-s odorant pulse, read-out: EC50): 430 ± 130 µM
- Effect on the response to eugenol in a binary mix ([1]; mouse Olfr73-OSNs, listed as MIEG): did not reduce the response; also recorded: not significantly changed
- Agonism/antagonism, OSN Ca2+ Rat ([5]; 5-s pulse, strong agonist 100 µM, putative antagonist 1 mM): Agonist
- Agonism/antagonism, HEK293 long odor Cre/SEAP Gs/olf ([6]; prolonged 30-min odorant application): Agonist
- Response to ligand applied alone, Cre-SEAP ([6]; prolonged application, 0 µM eugenol): generated cAMP
- Interaction with eugenol in a binary mix, Cre-SEAP ([6]; several concentrations of eugenol and MIEG, prolonged incubation): no antagonistic interaction
- Response to ligand applied alone, prolonged [7]: more slowly developing cAMP-dependent calcium influx; also recorded: significantly smaller than eugenol
- Response to mixture with eugenol versus eugenol alone, prolonged ([7]; 10 min, eugenol 100 µM and MIEG 1 mM): no significant difference
- Agonism/antagonism, HEK293 long odor Ca2+ Gs/olf [7]: Agonist
- Agonism/antagonism, HEK293 short odor Ca2+ Gs/olf ([2]; 5-s pulse): Antagonist
- Effect on the response to eugenol or vanillin in a binary mix ([2]; HEK293, Gs/olf): antagonized
- Agonism/antagonism, HEK293 short odor Ca2+ G15 [3]: Antagonist
- Effect on the response to vanillin, 30-sec pre-incubation ([3]; HEK293, Gα15, vanillin 100 µM, MIEG 1 mM): complete inhibition
- Agonism/antagonism, HEK293 short odor Ca2+ Gq11 [4]: Antagonist
- Effect on the response to vanillin, 30-s pre-incubation [4, 10]: near complete inhibition; also recorded: almost completely blocked
- Effect on the response to vanillin, co-application [4, 10]: only partially inhibited
- Response to ligand applied alone ([8]; listed as MIEG): did not evoke any response; also recorded: did not elicit any response
- Effect on the response to eugenol in a binary mix ([8]; eugenol 100 µM, MIEG 1 mM, 5-s pulse): reduced the response; also recorded: significantly diminished

SMILES: COc1cc(C=O)ccc1O [Vanillin, vanillin]
- Agonism/antagonism, HEK293 short odor Ca2+ Gs/olf ([2]; 5-s pulse): Agonist

SMILES: CC(=O)c1ccccc1 [acetophenone]
- Response to ligand applied alone ([1]; mouse Olfr73-OSNs, 5-s pulse): variable responses

SMILES: C=CCc1cc(OC)c(O)c(-c2cc(CC=C)cc(OC)c2O)c1 [di-Eugenol]
- Agonism/antagonism, OSN Ca2+ Mouse ([1]; 5-s pulse): Inactive
- Response to ligand applied alone ([1]; mouse Olfr73-OSNs, 5-s pulse): failed to activate any response
- Response to ligand applied alone ([1]; mouse Olfr73-OSNs, 5-s pulse, listed as di-EG): did not elicit any response
- Agonism/antagonism, HEK293 short odor Ca2+ Gs/olf ([2]; 5-s pulse): Antagonist
- Agonism/antagonism, HEK293 short odor Ca2+ G15 [3]: Antagonist
- Agonism/antagonism, HEK293 short odor Ca2+ Gq11 [4]: Antagonist

SMILES: CCC1c2cc(OC)c(O)cc2C(c2ccc(O)c(OC)c2)C1C (stereo not drawn) [di-Isoeugenol]
- Agonism/antagonism, OSN Ca2+ Mouse ([1]; 5-s pulse): Inactive
- Response to ligand applied alone ([1]; mouse Olfr73-OSNs, 5-s pulse, listed as di-IEG): did not elicit any response; also recorded: failed to activate any response
- Effect on the response to eugenol in a binary mix ([1]; mouse Olfr73-OSNs, listed as di-IEG): not able to antagonize; also recorded: additive increase
- Agonism/antagonism, HEK293 short odor Ca2+ Gs/olf ([2]; 5-s pulse): Antagonist
- Agonism/antagonism, HEK293 short odor Ca2+ G15 [3]: Antagonist
- Response to ligand applied alone [3]: is not an agonist
- Effect on the response to eugenol in a binary mix [3]: antagonizes eugenol
- Agonism/antagonism, HEK293 short odor Ca2+ Gq11 [4]: Antagonist

SMILES: CCCCCCCC=O [octanal]
- Response to ligand applied alone [9]: evoked reliable neuronal responses
